One data set concerns the target SOX18-SOX18 homodimer (Homo sapiens (Human), UniProt P35713). In words: ALPHAScreen SOX18-SOX18 homodimerization. The format is binding. The following applies: 5 uM. The protocol: (§1) ALPHAScreen was performed as previously described (Sierecki et al., 2014, Sierecki et al., 2013), using the cMyc detection kit and Proxiplate-384 Plus plates (PerkinElmer). The LTE lysate co-expressing the proteins of interest was diluted in buffer A (25 mM HEPES, 50 mM NaCl). For the assay, 12.5 μL (0.4 μg) of Anti-cMyc coated Acceptor Beads in buffer B (25 mM HEPES, 50 mM NaCl, 0.001% NP40, 0.001% casein) were aliquoted into each well. This was followed by the addition of 2 μL of diluted sample, at different concentration, and 2 μL of biotin labeled GFP-Nanotrap in buffer A. The plates were incubated for 45 min at room temperature, then adding 2 μL (0.4 μg) of streptavidin-coated Donor Beads diluted in buffer A, and incubation in the dark for 45 min at room temperature. The ALPHAScreen signal was measured on an Envision Plate Reader (PerkinElmer), using manufacturer's recommended settings (λexc=680/30 nm for 0.18 s, λem=570/100 nm after 37 ms). The resulting bell-shaped curve is an indication of a positive interaction, while a flat line reflects a lack of interaction between the proteins. The measurement of each protein pair was repeated in triplicate.
(§2) I is the highest signal level (top of the hook effect curve) and Ineg is the lowest (background) signal level. The signals were normalized to the Iref signal obtained for the strongest interaction. […] Percentage of interaction was calculated as: […]
(§3) The ALPHA-Screen Assay was performed as previously described (Sierecki et al. 2014), using the cMyc detection kit and Proxiplate-384 Plus plates (PerkinElmer). A serial dilution of each sample was measured. The LTE lysate co-expressing the proteins of interest was diluted in buffer A (25 mM HEPES, 50 mM NaCl). For the assay, 12.5 μL (0.4 μg) of Anti-cMyc coated Acceptor Beads in buffer B (25 mM HEPES, 50 mM NaCl, 0.001% NP40, casein) were aliquoted into each well. This was followed by the addition of 2 μL of diluted sample and 2 μL of biotin labeled GFP-Nanotrap in buffer A. The plate was incubated for 45 min at RT. Afterward, 2 μL (0.4 μg) of Streptavidin coated Donor Beads diluted in buffer A, were added, followed by incubation in the dark for 45 min at RT. The ALPHA-Screen signal was obtained on an Envision Multilabel Plate Reader (PerkinElmer), using the manufacturer's recommended settings (excitation: 680/30 nm for 0.18 s, emission: 570/100 nm after 37 ms). The resulting bell-shaped curve is an indication of a positive interaction, while a flat line reflects a lack of interaction between the proteins. The measurement of each protein pair was repeated a minimum of three times using separate plates. The Binding Index was calculated as: BI=[(I−I_neg)/(I_ref−I_neg)]×100
For PPI disruption assay, protein pairs expressed in LTE were incubated for 1 h with 100 μM Sm4 or DMSO alone (0.7% DMSO final). 100 μM Sm4 or DMSO was also added to buffer B. PPI disruption was calculated as: (1−I_Sm4/I_DMSO)×100.
For IC50 determination, the assay was identical but a dilution range of Sm4 was used (0.3 to 300 μM). Percentage of interaction was calculated as: I_Sm4/1 DMSO×100. Data from at least 3 independent experiments were fitted in GraphPad Prism (RRID: SCR_007370) version 6.0 using 3-parameter non-linear regression.
A general note: Bead proximity is the source of the signal in Alpha formats.

The next data set concerns the target SOX18-RBPJ interaction (Homo sapiens (Human), UniProt P35713). Description: ALPHAScreen SOX18-RBPJ protein-protein interaction. The format is binding.
From the text: Proteins were genetically encoded with enhanced GFP (GFP), mCherry and cMyc (myc) tags, and cloned into cell free expression Gateway destination vectors: N-terminal GFP tagged (pCellFree_G03), N-terminal Cherry-cMyc (pCellFree_G07) and C-terminal Cherry-cMyc tagged (pCellFree_G08) (Gagoski et al., 2015). Human RBPJ (BC020780) and MEF2C (BC026341) Open Reading Frames (ORFs) were sourced from the Human ORFeome collection, version 1.1 and 5.1, and the Human Orfeome collaboration OCAA collection (Open Biosystems), as previously described (Sierecki et al., 2013) and cloned at the ARVEC facility, UQ Diamantina Institute. The entry clones pDONOR223 or pENTR201 vectors were exchanged with the ccdB gene in the expression plasmid by LR recombination (Life Technologies, Australia). The full-length human SOX18 gene was synthesized and the transfer to vectors was realized using Gateway PCR cloning. Translation competent Leishmania tarentolae extract (LTE) was prepared as previously described (Kovtun et al., 2011, Mureev et al., 2009). Protein pairs were co-expressed by adding 30 nM of GFP template plasmid and 60 nM of Cherry template plasmid to LTE and incubating for 3 hours at 27° C.
ALPHAScreen was performed as previously described (Sierecki et al., 2014, Sierecki et al., 2013). […] Percentage of interaction was calculated as: (I_cpd/I_DMSO)×100 from 3 independent experiments.
as §1, §2
as §3, with “The measurement of each protein pair was repeated a minimum of three times using separate plates. The Binding Index was calculated as: BI=[(I−I_neg)/(I_ref−I_neg)]×100” left out

Entries after “also recorded” stand apart in the source; their conditions may differ.

Sequence of SOX18-RBPJ interaction (P35713 whole entry): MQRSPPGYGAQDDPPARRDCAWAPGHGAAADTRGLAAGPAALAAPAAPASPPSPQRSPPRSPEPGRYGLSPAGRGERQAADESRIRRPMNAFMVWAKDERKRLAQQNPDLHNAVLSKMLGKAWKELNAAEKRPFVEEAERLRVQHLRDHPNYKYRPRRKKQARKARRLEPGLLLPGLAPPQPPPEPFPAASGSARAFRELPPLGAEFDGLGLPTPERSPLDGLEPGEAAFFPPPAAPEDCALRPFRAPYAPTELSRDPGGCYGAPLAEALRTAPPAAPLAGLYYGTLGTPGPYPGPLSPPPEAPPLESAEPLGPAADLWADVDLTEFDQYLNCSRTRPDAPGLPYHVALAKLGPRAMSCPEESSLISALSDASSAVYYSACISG
Sequence of SOX18-SOX18 homodimer (P35713 whole entry): as above

On to `Oc1cc(CCc2ccccc2)cc(O)c1O` [Sm40, 5-phenethylbenzene-1,2,3-triol], for which the “inhibitory activity in respect of SOX18-SOX18 homodimerization” value (shortened to “inhibitory activity”) against SOX18-SOX18 homodimer is reported as “some inhibitory activity”. Also, at SOX18-RBPJ interaction, the “SOX18-RBPJ protein-protein binding inhibition at 5 μM” value is listed as “highly active”.
With `COc1cc(C)cc(/C=C/c2ccc3ccccc3c2)c1C(=O)O` [Sm34, (E)-2-methoxy-4-methyl-6-(2-(naphthalen-2-yl)vinyl)benzoic acid], the “inhibitory activity” value against SOX18-SOX18 homodimer is “some inhibitory activity”. Besides, on SOX18-RBPJ interaction, the “SOX18-RBPJ protein-protein binding inhibition at 5 μM” value was “highly active”.
As for `O=C(O)c1ccccc1Nc1cccc(C(F)(F)F)c1` [Flufenamic acid, reference compound], the IC50 on SOX18-RBPJ interaction (ALPHAScreen, read-out: SOX18-RBPJ interaction disruption IC50) was about 444 µM.
Regarding `CCN(CC)C(=O)c1c(O)cc(O)cc1CCc1ccc2ccccc2c1` [Sm26, N,N,diethyl-2,4-hydroxy-6-(2-(naphthalen-2-yl)ethyl)benzamide], the “inhibitory activity” value against SOX18-SOX18 homodimer is given as “some inhibitory activity”. On SOX18-RBPJ interaction, the “SOX18-RBPJ protein-protein binding inhibition at 5 μM” value was “highly active; also recorded: moderately active”.

As a reminder, the IC50 is the concentration needed to halve the response being measured.

The values are drawn from patent publication US20240002326A1, “COMPOUNDS AND USE THEREOF IN METHODS OF TREATMENT” (The University of Queensland, priority 2016, published 2024).
